This assay concerns Klebsiella pneumoniae, 24 clinical isolates and 1 lab strain. The assay is classed as cell-based. To be noted: average over 25 K. pneumoniae substrains; 37 °C, 16 h, OD 570 nm; growth at 32 μM counted as 64 μM. How it is done: Minimum inhibitory concentration (MIC, defined as the minimum AMP concentration to prevent bacterial growth) and biofilm data were obtained by UV–vis spectroscopy using a BioTek Epoch 2 microplate reader.
K. pneumoniae substrains were grown overnight using 50 mL plastic conical tubes on a shaker platform at 37 °C. The following day, serial dilutions of the four SPLUNC1 peptides and LL-37 were tested against these 25 substrains of K. pneumoniae using a 96-well plate. […] Following the addition of the peptides at the tested concentrations from serial dilutions to the K. pneumoniae substrains, the plates were incubated at 37 °C for 16 h. Then, visible spectroscopy at λ = 570 nm was performed to determine the bacterial absorption in each well. Those wells with an optical density reading above a threshold value were deemed resistant to the peptide, while those that were below the threshold value were deemed sensitive to the peptide. The threshold value was determined using Gen5 software with the Di lab Growth Inhibition Assay protocol.
Average MICs and standard deviations were calculated by first averaging the absorbances as a function of AMP concentration in all of the bacterial strains from four total data sets. Then, the average MICs were determined from the averaged absorbances. The standard deviations of the MICs were calculated from each of the absorbances that were used to calculate the average. Then, the standard deviations were averaged across substrains for the graph. These procedures were used to obtain an average MIC with standard deviation across all 25 substrains for one peptide, in order to compare peptide efficacy. Typically, many more substrains are used to obtain an average MIC, so this average MIC may change if thousands of substrains are compared.

Turning to `CC[C@H](C)[C@H](NC(=O)[C@@H](NC(=O)[C@H](CO)NC(=O)[C@H](CCCCN)NC(=O)[C@@H](NC(=O)[C@H](CCCCN)NC(=O)CNC(=O)[C@H](Cc1c[nH]c2ccccc12)NC(=O)[C@@H](NC(=O)CNC(=O)CNC(=O)[C@@H](NC(=O)[C@H](Cc1c[nH]c2ccccc12)NC(=O)CNC(=O)[C@H](CCCCN)NC(=O)[C@@H](NC(=O)[C@H](CCCCN)NC(=O)[C@H](CCCCN)NC(=O)[C@H](Cc1ccccc1)NC(=O)[C@H](Cc1ccccc1)NC(=O)[C@H](CCCCN)NC(=O)[C@H](CCCCN)NC(=O)[C@@H](N)CC(C)C)C(C)C)C(C)C)C(C)C)C(C)C)C(C)C)C(=O)N[C@@H](CCCCN)C(=O)O` (stereo in doubt) [A4-153], the “average MIC value” came to 18 µM.

For the origin of these results see paper PMC10265666, “Lung SPLUNC1 Peptide Derivatives in the Lipid Membrane Headgroup Kill Gram-Negative Planktonic and Biofilm Bacteria” (Biomacromolecules, 2023).
